Test system: C57B16/J mice, zymosan-induced peritonitis
Test: Zymosan-induced peritonitis in mice
Assay type: in vivo, mouse
Set-up: Reduction of MCP-1 in peritoneal lavage fluid (FIG. 7F) / Reduction of KC in peritoneal lavage fluid (FIG. 7F) / Reduction of TNFα in peritoneal lavage fluid (FIG. 7F) / Reduction of IL-1β in peritoneal lavage fluid (FIG. 7F) / Reduction of IL-6 in peritoneal lavage fluid (FIG. 7F): concentration or dose not given beside the values
Details: for Protection in vivo as judged by monocyte and neutrophil levels (FIG. 7C-D): same dose and time as C15
Description: FIGS. 7A and 7B—C57B16/J mice were dosed i.p with PBS or chemerin15 (0.32 ng/kg) followed by injection with PBS or zymosan (10 μg, ˜2×10^6 particles per cavity) 1 h later. Peritoneal exudate cells were harvested by peritoneal lavage at multiple time points (FIGS. 7A and 7B; 5-6 mice/treatment) or after 4 h (FIGS. 7C-7E; 6-15 mice/group). FIGS. 7C-7E—total cell numbers in lavage fluid were quantified and cellular composition (neutrophils vs mononuclear phagocytes) determined using FACS analysis. Cells were blocked with 2.4G2 anti-FcγRII/III and stained with Ly-6G-PE and 7/4-FITC. Gates were constructed around two populations, the neutrophils (N; 7/4high, Ly-6Ghigh) and inflammatory monocytes (Mo; 7/4high, Ly-6Glow). FIG. 7E—representative FACS plots are shown for each treatment group at 4 h post-zymosan. FIG. 7F—peritoneal lavage fluid was assayed for TNFα and KC by ELISA and IL-6, IL-1β and MCP-1 by Luminex assay. C15; Chemerin15, Z; Zymosan. ***, P<0.001; **, P<0.01 ** relative to zymosan-treated animals (Student's t test). FIG. 7G—Mice (6-8/treatment) were dosed i.p with zymosan (10 μg) and with C15 (8 pg) or PBS either 1 h beforehand (C15 pre-treatment) or 2 h later (C15 post-treatment). Peritoneal lavage was carried out 4 h post-zymosan challenge. Reference in this figure to the peptide C15 refers to the peptide described previously as C15m;
More specifically, male C57B16/J mice (8-12 weeks) were injected intra-peritoneally with 0.5 ml PBS or 0.5 ml Chemerin15-mouse (0.32 ng/kg) followed by injection with 0.5 ml PBS or Zymosan (2×10^6 particles per cavity) an hour later. After 4 hours animals were sacrificed and peritoneal cavities washed with 5 ml PBS-3 mM EDTA. Total cell counts were obtained using Trypan blue exclusion test. For determination of cellular composition (Neutrophils vs mononuclear phagocytes), cells were blocked with 2.4G2 mAB for 5 mins and stained with PE-conjugated anti-mouse Ly-6G and FITC-conjugated anti-mouse 7/4 mAB for 10 mins. Cells were fixed in 1% formaldehyde prior to FACS analysis with CellQuest software. Gates were constructed around two populations, the neutrophils (N; 7/4^high, Ly-6G^high) and inflammatory monocytes (Mo; 7/4^high). C15 refers to Chemerin15-mouse. Z refers to Zymosan. p<0.01 **; p<0.05 * relative to Zymosan-treated.
Neutrophil (7/4^high, Ly-6G^high), monocyte (7/4^high, Ly-6G^low) and resident macrophage populations (7/4^low, Ly-6G^low) were determined according to Gordon S and Taylor P R Nat Rev Immunol. 2005; 5(12):953; Taylor P R et al. Eur J Immunol. August 2003; 33(8):2090-2097; and Taylor P R et al. Eur J Immunol. July 2005; 35(7):2163-2174.
The above result was further investigated. To determine the anti-inflammatory properties of the C15 peptide in vivo a time-course experiment was performed extending over 48 h. Neutrophil (7/4high, Ly-6Ghigh) and monocyte (7/4high, Ly-6Glow) populations in peritoneal lavage fluid were determined by FACS analysis according to published protocols (Taylor, P. R. et al., (2005). Eur J Immunol 35:2163-2174; Taylor, P. R., (2003). Eur J Immunol 33:2090-2097). Administration of zymosan into the mouse peritoneal cavity produced a time-dependent extravasation of inflammatory cells into the peritoneal cavity, which followed the typical profile of an acute inflammatory response (FIG. 7A-B, solid line). Neutrophils were the first leukocytes to infiltrate the cavity, detectable at 2 h post-zymosan with peak neutrophilia occurring at 4 h (1.95×10^6 cells). Monocyte influx into the inflamed peritoneal cavity was first detectable after 4 h (0.69×10^6 cells), peaking at 24 h post-zymosan injection (1.25×10^6 cells) and declining thereafter. Pre-treatment with C15 at a dose of 8 pg/mouse (≈0.32 ng/kg) 1 h prior to zymosan challenge brought the peak neutrophilia forward to 2 h with approximately 50% the magnitude of that of zymosan challenged mice (reduced from 1.25×10^6 to 0.62×10^6 cells; FIG. 7A, dotted line). […]

[1] = 8 pg/mouse 1 h before zymosan, 4 h post-zymosan
[2] = 0.32 ng/kg (8 pg/mouse) i.p. 1 h before zymosan, 4 h
[3] = C15 2 h post-zymosan, lavage 4 h post-zymosan

In the case of “AGEDPHGYALPGQAA (Mutant C15) [C15-M, control peptide, mutant C15 (F148A & F153A), reference compound]”, the “Protection in vivo as judged by monocyte and neutrophil levels (FIG. 7C-D)” value is reported as “not be protective”.
With “AGEDPHGYFLPGQFA (listed as Mus sp.) [C15]” the “Suppression of neutrophil infiltration (FIG. 7A)” value (shortened to “Suppression … (FIG. 7A)”) (8 pg/mouse 1 h before zymosan, 2 h post-zymosan) was 50%, the “Suppression … (FIG. 7A)” value [1] was 66% and the “Suppression of peritoneal monocytes (FIG. 7B)” value (shortened to “Suppression … (FIG. 7B)”) [1] was 63%. The “Suppression … (FIG. 7B)” value (8 pg/mouse 1 h before zymosan, 8 h post-zymosan) was 61%, the “Suppression … (FIG. 7A)” value (8 pg/mouse 1 h before zymosan, 24 h post-zymosan) was 50% and the “Suppression … (FIG. 7B)” value (8 pg/mouse 1 h before zymosan, 48 h post-zymosan) was 64%. The “Peritoneal neutrophils at 2 h (peak neutrophilia under C15)” value (8 pg/mouse 1 h before zymosan, zymosan alone 1.25×10^6) was 0.62×10^6 cells, the “Time of peak neutrophilia” value (8 pg/mouse 1 h before zymosan, zymosan alone 4 h) was 2 h and the “Reduction of Zymosan-elicited monocyte recruitment (FIG. 6)” value [2] was 42%. For the same sequence, the “Reduction of Zymosan-elicited neutrophil recruitment (FIG. 6)” value [2] was 52%, the “Levels of TNFα in zymosan-treated mice (FIG. 6)” value (0.32 ng/kg i.p. 1 h before zymosan) was “reduced” and the “Rate of monocyte influx into the inflamed cavity” value (2-4 h post-zymosan, zymosan alone 0.51×10^6/h) was 180000 h⁻¹. The “Reduction of IL-1β in peritoneal lavage fluid (FIG. 7F)” value (4 h post-zymosan) was 67%, the “Reduction of IL-6 in peritoneal lavage fluid (FIG. 7F)” value (4 h post-zymosan) was 67% and the “Reduction of KC in peritoneal lavage fluid (FIG. 7F)” value (4 h post-zymosan) was 38%. The “Reduction of MCP-1 in peritoneal lavage fluid (FIG. 7F)” value (4 h post-zymosan) was 59%, the “Reduction of TNFα in peritoneal lavage fluid (FIG. 7F)” value (4 h post-zymosan) was 51% and the “Decrease in monocyte levels (FIG. 7D)” value (C15 1 h prior to zymosan, 4 h) was 62%. For the same sequence, the “Decrease in neutrophil numbers (FIG. 7C)” value (C15 1 h prior to zymosan, 4 h) was 63%, the “Monocyte levels (FIG. 7D)” value (C15 1 h prior to zymosan, 4 h, zymosan alone 0.69×10^6) was 0.30×10^6 and the “Neutrophil numbers (FIG. 7C)” value (C15 1 h prior to zymosan, 4 h, zymosan alone 1.9×10^6) was 0.78×10^6. For the same sequence, the “Decrease in monocyte recruitment, C15 post-treatment (FIG. 7G)” value [3] was 42%, the “Decrease in neutrophil recruitment, C15 post-treatment (FIG. 7G)” value [3] was 60% and the “Monocyte number, C15 post-treatment (FIG. 7G)” value (C15 2 h post-zymosan, lavage 4 h post-zymosan, zymosan alone 0.69×10^6) was 0.42×10^6 cells. The “Neutrophil number, C15 post-treatment (FIG. 7G)” value (C15 2 h post-zymosan, lavage 4 h post-zymosan, zymosan alone 1.9×10^6) was 0.83×10^6 cells, the “Dose with efficacy against sterile peritonitis in mice” value (mouse, in vivo) was 0.00032 µg/kg and the “Dose giving maximal reduction in zymosan-elicited neutrophil and monocyte recruitment” value (single i.p. dose, 4 h post-zymosan) was 8 pg/mouse.
For “GLFHDQAGPPAGYEF (Scrambled C15) [C15-S, control peptide, scrambled C15, reference compound]”, the “Protection in vivo as judged by monocyte and neutrophil levels (FIG. 7C-D)” value was “not be protective”.

From patent US8906865B2, “Treatment of inflammation and/or endotoxic shock” (ISIS Innovation Limited, priority 2007, dated 2014)
